Assay results: patent US10245249B2, “Pharmaceutical compositions comprising nitroxyl donors” (Cardioxyl Pharmaceuticals, Inc., priority 2013, dated 2019)
“And” between values parts separate entries of the source, which are not always exact repeats. Equal values may be shown once.

Tests used:
[1] = system: patients with systolic heart failure; conditions: cited from earlier work
[2] = Concentrate storage stability, compound of formula (2) 30 mg/mL in 30% CAPTISOL pH 4.0 (Example 8); type: physicochemical; set-up: key to Appearance 0 h / Appearance 24 h / Appearance 72 h / Appearance 168 h: the term “c/c” refers to clear and colorless; conditions: for Concentration, mg/mL 0 h / Concentration, mg/mL 24 h / Concentration, mg/mL 72 h / Concentration, mg/mL 168 h: 30 mg/mL concentrate in 30% CAPTISOL pH 4.0; for Appearance 0 h / Appearance 24 h / Appearance 72 h / Appearance 168 h / Observed Degradant, Compound of Formula (101), mg/mL 0 h / Observed Degradant, Compound of Formula (101), mg/mL 24 h / Observed Degradant, Compound of Formula (101), mg/mL 72 h / Observed Degradant, Compound of Formula (101), mg/mL 168 h / pH 0 h / pH 24 h / pH 72 h / pH 168 h: concentrate
Method: The storage stability of a liquid concentrate of the Compound of formula (2) (30 mg/mL) in the vehicle 30% CAPTISOL® (w/v) at pH 4.0, was assessed at 4° C. and 25° C. over 7 days, with time points after 1, 3 and 7 days. At each time point samples were assessed for visual appearance, pH, and concentration and purity by HPLC (XBridge Phenyl Column (Waters); UV absorbance detector at 272 nm; mobile phase a step gradient of aqueous acetonitrile containing 0.1% (v/v) formic acid).
The selected vehicle, CAPTISOL® (30% w/v) in water with pH adjusted to 4.0, was prepared by accurately weighing 30 grams of CAPTISOL® into a 150 mL beaker and dissolved with 45 mL of water. The pH was adjusted to pH 4.0 by addition of 0.1N HCl. Subsequently, the vehicle was transferred to a volumetric flask and brought to 100 mL final volume by addition of water. After incubation at a temperature of about 25° C. for 30 minutes, the pH of the vehicle was re-adjusted to pH 4.0 by addition of 0.1N HCl. The vehicle formed a clear, colorless solution.
A concentrated solution of the compound of formula (2) was prepared as follows. A stir bar and 30 mL of vehicle were added to a 150 mL beaker. Approximately […] of the compound of formula (2) was dispensed and transferred to the beaker under low to medium stirring. After 45 minutes of stirring at a temperature of about 25° C. (protected from light), the concentrate formed a clear, colorless solution with some small, white clumps of the compound of formula (2) floating in solution. The remaining clumps were gently broken-up using a spatula. Following an additional 45 minutes of stirring, the concentrate formed a clear, colorless solution without any visible solids. The concentrate was then filtered (0.2 μm) through a 0.22 μm PVDF syringe filter.
For t=0 h testing, aliquots were distributed into vials and analyzed by HPLC (XBridge Phenyl Column (Waters); UV absorbance detector at 272 nm; mobile phase a step gradient of aqueous acetonitrile containing 0.1% (v/v) formic acid) and the sample pH was determined. Twelve aliquots of 1 mL of the concentrate were distributed into microcentrifuge tubes for storage at 4° C. and 25° C. After approximately 24, 72 and 168 hours of storage, two aliquots were removed from each storage condition and assessed for visual appearance, pH, and concentration and purity by HPLC. […] The pH of the samples stored at 4° C. and 25° C. decreased from 3.7 to 3.6 and 3.3, respectively, over the 7 days. In Table 12, the term “c/c” refers to clear and colorless.

## CS(=O)(=O)c1ccccc1S(=O)(=O)NO [CXL-1020, N-hydroxy-2-methanesulfonylbenzene-1-sulfonamide, reference compound]
[1]; intravenous aqueous solution at pH=4
  hemodynamic effects in patients with systolic heart failure: reduced both left and right heart filling pressures and systemic vascular resistance, while increasing cardiac and stroke volume index
[1]; intravenous
  side effects at threshold doses needed to produce hemodynamic effects: unacceptable levels of inflammatory irritation at and distal to the intravenous insertion site

## CS(=O)(=O)c1cccc(S(=O)(=O)NO)c1 [Compound 2, N-Hydroxy-3-methanesulfonylbenzene-1-sulfonamide]
[2]; 4° C. and 25° C., over 7 days
  concentration sustained: 30000 µg/mL
  known degradant (compound of formula (101)): No detectable levels
  visual appearance of all samples: clear, colorless solutions
[2]; 4° C.
  Concentration, mg/mL 0 h: 30.3 mg/mL
  Concentration, mg/mL 24 h: 30.6 mg/mL and 30.2 mg/mL
  Concentration, mg/mL 72 h: 29.6 mg/mL and 29.4 mg/mL
  Concentration, mg/mL 168 h: 29.7 mg/mL and 29.9 mg/mL
  Appearance 0 h: c/c
  Appearance 24 h: c/c
  Appearance 72 h: c/c
  Appearance 168 h: c/c
  Observed Degradant, Compound of Formula (101), mg/mL 0 h: No
  Observed Degradant, Compound of Formula (101), mg/mL 24 h: No
  Observed Degradant, Compound of Formula (101), mg/mL 72 h: No
  Observed Degradant, Compound of Formula (101), mg/mL 168 h: No
  pH 0 h: 3.7 and 3.71
  pH 24 h: 3.70
  pH 72 h: 3.66
  pH 168 h: 3.6 and 3.61 and 3.58
[2]; 25° C.
  Concentration, mg/mL 0 h: 30.3 mg/mL
  Concentration, mg/mL 24 h: 30.2 mg/mL
  Concentration, mg/mL 72 h: 29.4 mg/mL and 29.8 mg/mL
  Concentration, mg/mL 168 h: 29.5 mg/mL and 29.4 mg/mL
  Appearance 0 h: c/c
  Appearance 24 h: c/c
  Appearance 72 h: c/c
  Appearance 168 h: c/c
  Observed Degradant, Compound of Formula (101), mg/mL 0 h: No
  Observed Degradant, Compound of Formula (101), mg/mL 24 h: No
  Observed Degradant, Compound of Formula (101), mg/mL 72 h: No
  Observed Degradant, Compound of Formula (101), mg/mL 168 h: No
  pH 0 h: 3.71
  pH 24 h: 3.47 and 3.48
  pH 72 h: 3.34
  pH 168 h: 3.3 and 3.32
